The values below are quoted from earlier work in US20220280447A1, “COMPOSITIONS AND METHODS FOR IMPROVING BRAIN FUNCTION” (HEALTH VIA MODERN NUTRITION INC., priority 2021, published 2022).

The conditions of data set [1]: rats fed diet supplemented as 30% of calories.
The conditions of data set [2]: children.
For data set [3] the following is noted: animal models.
For data set [4] the following is noted: teenagers with social anxiety disorders.
Data set [5] concerns adenosine A1 receptors.
In data set [6] the test system is reactive oxygen species (ROS) production by mitochondria. The note with it: in vitro.
The test system of data set [7] is NF-icB activation. The settings on record: in vitro.
The conditions of data set [8]: animal studies.
The conditions of data set [9]: in vitro studies.
For data set [10] the following is noted: Schizophrenia-like rat model.
The conditions of data set [11]: Alzheimer's disease transgenic mice.
The conditions of data set [12]: 20-month oral administration, patient with Alzheimer's disease dementia.

Molecules are shown by their SMILES. Read-outs that look alike come from different tables or passages of the source.

As for `C[C@@H](O)CCOC(=O)C[C@@H](C)O` [(R)-3-hydroxyburyl (R)-3-hydroxybutyrate], in data set [1], the “cognitive and physical performance” value was “improved cognitive and physical performance”.

With `C=C(C)[C@@H]1CCC(C)=C[C@H]1c1c(O)cc(CCCCC)cc1O` [CBD, cannabidiol], the “treatment of certain seizure disorders” value in data set [2] is given as “effective”. The “anti-anxiety and antidepressant effects” value in data set [3] is “anti-anxiety and antidepressant effects”. Also, the anxiolytic effect entry in data set [4] is given as “anxiolytic effect”. For the same compound, the “effect on adenosine A1 receptors” value in data set [5] is recorded as “affect adenosine A1 receptors”. In addition, in data set [6], the “reactive oxygen species (ROS) production by mitochondria” value is listed as “inhibits”. Further, the NF-icB activation entry in data set [7] is “inhibits”. Besides, the anti-inflammatory properties result in data set [8] is recorded as “strong anti-inflammatory properties”. Moreover, the anti-inflammatory properties entry in [9] is “strong anti-inflammatory properties”. In [10], the cognitive impairment result is recorded as “improve cognitive impairment” and the cortical transcriptional changes entry is listed as “reverse cortical transcriptional changes”. Also, the “development of a social recognition deficit” value in data set [11] was “prevent the development of a social recognition deficit”.

With `C[C@@H](O)CCOC(=O)C[C@@H](C)O` [ketone monoester], the “mood, affect, self-care, cognitive and daily activity performance” value in [12] is on record as “improved markedly”.
